A short description of series [1]: DPPH free radical scavenging assay. The protocol: The antioxidant property of different tryptamine derivatives were assessed and compared with the known antioxidants for potency. A range of different synthesized compounds and known anti oxidants, quercetin, ascorbic acid and gallic acid were analyzed by the FRAP assay. The FRAP assay is based on the measurement of the ability of the substance to reduce Fe^3+ to Fe^2+, greater the reducing ability greater the anti oxidant property. Antioxidants reduce Fe^3+-TPTZ in to blue colored Fe^2+-TPTZ complex, which results in an increase in the absorbance at 595 nm giving a FRAP value. […] Absorbance changes at different time intervals (FIG. 6) as well as at different concentrations (FIG. 7) at time 6 min in the presence of different compounds at 595 nm were measured. FRAP values at 6 min and 65 min were calculated from different tryptamine derivatives and some known antioxidant (Table 1). […] DPPH assay based on the DPPH free radicals scavenging power of the antioxidant molecules. Higher the scavenging power higher will be the antioxidant property. […] This assay was performed in presence of some known antioxidants such as ascorbic acid, quercetin and gallic acid.
2,2-Diphenyl-1-Picrylhydrazyl (DPPH) is a stable free radical that can accept hydrogen radical or an electron and become a stable diamagnetic molecule. The antioxidants can scavenge the DPPH by donating hydrogen as visualized by discoloration of the DPPH radical from purple to yellow (Pal, C; et al. Free Radic Biol Med, 49(2), 258-267; 2010, Ben Farhat, M.; et al. J. Agric. Food Chem. 57:10349-10356; 2009, Han, J; et al. Wei Sheng Yan Jiu 38:596-598; 2009). The assay system contained 1 mL of compounds under investigation dissolved (in methanol, some compound dissolved in water) at different concentrations in the range 10-100 μM solution and 4 ml of DPPH (0.15 mM) in methanol (80% in water v/v) and mixed well. It was allowed to stand for 30 min at 27° C. away from light. Ascorbic acid at the same concentration was taken as positive control. The absorbance of the solution was measured spectrophotometrically at 517 nm and from the decrease of absorption; the antioxidant activity of different tryptamine derivatives were determined.

Series [2] has as its system cold-restrain stress induced mucosal injury. As to the kind of experiment: Cold-restrain stress induced mucosal injury. To be noted: immobilized at 4° C. for 3.5 hrs; rats. The format is in vivo, Sprague-Dwaley rats.
The next series relates to rats. As to the kind of experiment: Toxicity (death) after injection in rats. To be noted: conclusion from in vivo experiments. The format is in vivo.

On to `O=C(NCCc1c[nH]c2ccc(O)cc12)c1cc(O)c(O)c(O)c1` [Compound 3a, 3,4,5-trihydroxy-N-(2-(5-hydroxy-1H-indol-3-yl)ethyl)benzamide], for which, in series [1] (among all the derivatives), the “DPPH scavenging power in words” value was “higher scavenging power”. Moreover, the “Absorbance change (ΔA) at 30 min” value is recorded as 0.45 ± 0.08 in series [1] (compounds 100 μM, 517 nm (Table 2)); 0.27 ± 0.03 in series [1] (concentration 10 μM (Table 3)); 0.34 ± 0.05 in series [1] (concentration 30 μM (Table 3)); 0.37 ± 0.07 in series [1] (concentration 50 μM (Table 3)); 0.42 ± 0.07 in series [1] (concentration 80 μM (Table 3)); 0.45 ± 0.08 in series [1] (concentration 100 μM (Table 3)). The “antioxidant power compared with ascorbic acid, quercetin and gallic acid” value in series [1] (data not shown) was “almost equal antioxidant power”. Besides, the “gastroprotective effect in stress induced gastropathy” value in series [2] is reported as “protects the gastric mucosa”. In the series on rats, the toxicity in rats entry is “nontoxic molecule”.
